We go through two compounds from US8236849B2, “Model for glutamate racemase inhibitors and glutamate racemase antibacterial agents” (Ohio Northern University, priority 2008, dated 2012).

The subject of the test is S. pneumoniae R6 strain. In words: Whole-cell assay on blood agar plates, inhibition zones. Type of test: cell-based. To be noted: 0.5, 0.75 and 1.0 μg/mL, data not shown. Here is the method:
Whole-cell Assays: Selected compounds were assayed against S. pneumoniae on blood agar plates as shown on FIG. 3.

Consider `Cc1ccc(C(=O)CC(NCCc2c[nH]c3ccccc23)C(=O)O)cc1` (centres unmarked) [Compound A, 2-(2-(1H-indol-3-yl)ethylamino)-4-oxo-4-p-tolylbutanoic acid], for which the “antibacterial activity (inhibition zones compared to DMSO)” value is listed as “weaker antibacterial activity than Compound B”.

Take `O=C(CC(NCCc1c[nH]c2ccccc12)C(=O)O)c1ccc(F)cc1` (centres unmarked) [Compound B, 2-(2-(1H-indol-3-yl)ethylamino)-4-(4-fluorophenyl)-4-oxobutanoic acid]: the “antibacterial activity (inhibition zones compared to DMSO)” value is recorded as “significant antibacterial activity”.
